From patent US7033597B2, “Intracellular delivery of biological effectors” (Université de Lausanne, priority 2000, dated 2006)
Where no end group is shown, it is not given here.

Assays:
Format in all cases: cell-based
βTC-3 cells [1] = assay: Immunocytochemistry and fluorescence studies of oximes; conditions: fluorescence studies
Description: Single phages isolated according to the enrichment scheme above were amplified. The phage peptides and one of oximes 1–6 were added and incubated for 24 hours with cells in culture medium. Medium was then washed off and cells fixed in cold methanol-acetone (1:1) for 5 minutes. Antibodies directed against the phage capsid or against biotin (peptides) were used with a fluorescein-conjugated (phage) or Texas Red labeled (peptides) secondary antibody. Classical fluorescence microscopic studies and confocal microscopic assays were performed.
Oximes 1–3 were first tested for their entry into βTC-3 cells. […] The superiority of oxime 3 may be due to the flexibility of the PEG spacer, which increases binding to the receptors on the cells.
Oximes 4–6, which are similar to oxime 3, were then synthesized and assayed for binding avidity and entry efficiency.

βTC-3 cell line = assay: Panning of phage display library on βTC-3 cells, occurrence of recovered phages
Description: (§1) A library of 3×10^8 independent phages displaying random 15-mer epitopes at the surface of the capsids was generated using standard procedures (e.g., in T7 415 or the T7 413b phage, Novagen). See Smith and Scott, Methods Enzymol. 217:228 (1993). Phages were amplified then purified by polyethylene glycol (PEG) precipitation and finally resuspended at a concentration of 10^10 infective particles per μl in Tris-EDTA buffer (10:1 mM, TE) as described (by Smith and Scott, supra). Phages (10^12) were added to cells in culture medium for 1 to 24 hours. Longer incubation times were preferred to favor isolation of phages that escaped proteolytic degradation in endocytotic vesicles. Following binding and internalization, cells were washed and non-internalized phages were destroyed by digestion with subtilisin (3 mg/ml) (44). Following extensive washing, internalized phages were then recovered by lysing cells in a buffer containing 2% deoxycholate, 10 mM Tris-HC1 and 2mM EDTA, pH 8.0. Recovered phages were finally amplified in E. coli cells (XL-1-Blue) and purified as described above. This preparation of selected phages was then used for a second round of panning. Three to five sequential rounds were performed to obtain enrichment of specific phage-bearing peptide sequences.
The pancreatic β-cell line βTC-3 was panned with the phage display library mentioned herein. […] Panning experiments using βTC-3 cells were performed with 10^9 phages used at each step of the enrichment procedure. The number of phages recovered at 0 ° C.
The occurrence of phages recovered after three steps of panning in the βTC-3 cell line is seen in Table 2.

WiDr = assay: Specificity of phage uptake, internalized and recovered phages; conditions: 10^8 phages incubated 16 hours
Description: as §1
(§2) Determination of the specificity of uptake was performed by titrating the number of recovered phages in 5 different cell lines.

HeLa = assay: as above; conditions: 10^8 phages incubated 16 hours
Description: as §1, §2

HepG2 = assay: as above; conditions: 10^8 phages incubated 16 hours
Description: as §1, §2

A549 = assay: as above; conditions: 10^8 phages incubated 16 hours
Description: as §1, §2

βTC-3 = assay: as above
Description: as §1, §2

5 different cell lines = assay: Specificity of phage uptake across the cell lines; conditions: βTC-3 vs HeLa, WiDr, HepG2, A549
Description: as §1, with “sequences. […]” for “sequences.”

βTC-3 cells [2] = assay: Titration of phage P1 incubated with βTC-3 cells
Description: as §1
The ratio of input/recovered phages is also shown.

With “Oxime 3: tetraoxime with four copies of RRTK, two-unit PEG spacer between peptide and core 1, FITC reporter (RRTK-OH; not fully specified (N-terminus, bridges); also: tetraoxime: four RRTK copies joined by thioether to Cys of branched trilysine core 1, core carries aminooxyacetyl-Lys(FITC) via oxime bond)” the “binding to receptors on the cell surface” value (βTC-3 cells [1]) was “clearly bound to the receptors on the surface of βTC-3 cells”.
With RKLR [Oxime P6] the “occurrence of phages recovered after three steps of panning” value (“occurrence of phages recovered” for short) (βTC-3 cell line) was 17%.
For RRPK [Oxime P66], the “occurrence of phages recovered” value (βTC-3 cell line) was 5.5%.
RRTK [Oxime P1] was tested, and the Phages recovered (WiDr) was 2 × 10^2, the Phages recovered (HeLa) was <1 × 10^2 and the Phages recovered (HepG2) was <10. The Phages recovered (A549) was 10^3, the efficiency of internalization (βTC-3; phage experiments, βTC-3 cells) was “low” and the uptake by cells (βTC-3; phage experiments, βTC-3 cells) was “taken up specifically by βTC-3 cells via receptor-mediated endocytosis”. For the same substance, the Phages recovered (βTC-3; βTC-3, 10^8 phages incubated 16 hours) was 1 × 10^7, the “uptake by βTC-3 cells relative to any other cell line tested” value (5 different cell lines) was 10,000 to 1,000,000 fold and the “occurrence of phages recovered” value (βTC-3 cell line) was 61%. The “% Recovered” value (βTC-3 cells [2]; incubation 1 h) was 0.01% and the “initial phage input recovered” value (βTC-3 cells [2]; titration experiments) was ≤ 10%.
